Data on three compounds can be found in article PMC7472048 (Viruses, 2020).

In general, EC50 refers to the concentration giving half of the maximal effect.

Data set [1] has as its system influenza A virus. The settings on record: mouse, in vivo; cited from earlier work.
Data set [2] concerns rLCMV/ZsG. The data set can be described thus: microbe, parasite or virus in culture. The conditions noted are these: Mammarenavirus choriomeningitidis, A549, 48 h, read-out: rLCMV (A549 cell) EC50. Type of data set: cell-based, lymphocytic choriomeningitis virus (LCMV).
Data set [3] in a line: in vitro. The settings on record: human.
In data set [4] the test system is rLASV. The data set can be described thus: microbe, parasite or virus in culture. It counts as cell-based, Lassa virus (LASV). The conditions noted are these: Mammarenavirus lassaense, A549, read-out: rLASV (A549 cell) EC50.
In data set [5] the test system is LASV Z-mediated budding. Type of data set: cell-based, Lassa virus (LASV).
Data set [6] relates to LCMV CL-13. More on the design: species or system C57BL/6 mice. The conditions noted are these: mouse, in vivo, 150 mg/kg/day.
A short description of data set [7]: in vitro. The conditions noted are these: African green monkey (Chlorocebus aethiops).
Data set [8] deals with rCL-13/ZsG. It counts as cell-based, lymphocytic choriomeningitis virus (LCMV).
Data set [9] deals with r3Can. In words: organism not typed. Type of data set: cell-based, Junín virus (JUNV) Candid#1 strain. The settings on record: Vero, read-out: r3Can (Vero cell) EC50.
Data set [10] deals with rLASV/GFP. Type of data set: cell-based, Lassa virus (LASV).
Data set [11] has as its system IFNB and ISG mRNA expression. It counts as cell-based, Homo sapiens.
For data set [12], the system named is r3Can/GFP. It counts as cell-based, Junín virus (JUNV).

Take `CCOc1ccc(-c2cc(C(=O)O)c3cc(Br)ccc3n2)cc1` [FA-613]: in data set [1], the survival entry is “increased survival”.

On to `COc1cccc(-c2ccc(NC(=O)C3=C(C(=O)O)CCC3)c(F)c2)c1` [Cmp 4, vidofludimus calcium], for which the figures for the EC50 in [2], in data set [4] and in data set [9] were 1280 nM, 3020 nM and 1680 nM, respectively. Also, the CC50 in [3] came to 54400 nM; in [7], 5920 nM. Further, the “Z budding efficiency, ratio ZVLP:(ZVLP+ZWCL)” value in [5] is reported as “very modest, but statistically significant, effect”. Besides, in data set [6], the “body weight loss and recovery versus vehicle control” value was “less body weight loss and faster recovery”. Also, the “viral load (serum virus titers)” value in data set [6] was “did not cause a significant reduction”. In data set [8], the “Cmp 4-induced antiviral effect with exogenous uridine” value is “reverted”.

Consider `Cc1c(-c2ccc(-c3ccccc3F)cc2)nc2ccc(F)cc2c1C(=O)O` [Brequinar], for which the EC50 in data set [2] is 41 nM; in data set [4], 63 nM; in data set [9], 40 nM. Moreover, the CC50 in [3] is 79000 nM; in [7], 47200 nM. Moreover, the rLASV/GFP propagation result in data set [10] is “strongly inhibited”. Moreover, in data set [11], the “mRNA levels of IFNB and ISGs in LCMV-infected cells” value is “significantly decreased”. Further, in [11] (5 µM, 48 h), the “ISG15 and IFIT1 expression in non-infected A549 cells” value was “moderately upregulated”. For the same compound, the “expression of IFNB in non-infected A549 cells” value in data set [11] (5 µM, 48 h) is listed as “Neither Cmp 1 nor brequinar treatment significantly affected”. The r3Can/GFP propagation result in data set [12] is “strongly inhibited”.
